Where a SMILES comes first, the peptide text is derived from it.
Legend:
[1] = test system: human Kv1.1; conditions: cited from earlier work; for IC50: human Kv1.1 channel blocking, patch-clamp, read-out: IC50, Kv1.x blocking (Kv1.1)
[2] = molecular target: T1, KcsA-Kv1.3 T+F chimera (Streptomyces lividans, UniProt P0A334, A54D/A57S/G53D/G56T/I60S/L59F/L81M/Q58G/R52A/R64D/T61S/Y62I/Y82H); test: Phage ELISA-binding assay, KcsA-Kv1.3 T+F; set-up: species or system human Kv1.3 turret and filter in Streptomyces lividans KcsA; conditions: toxin displayed on M13 phage, Fig. 6D
T1 construct: made in house; host or cells: E. coli C41(DE3) (pET45b)
T1 sequence (P0A334 1-160 R52A/G53D/A54D/G56T/A57S/Q58G/L59F/I60S/T61S/Y62I/R64D/L81M/Y82H): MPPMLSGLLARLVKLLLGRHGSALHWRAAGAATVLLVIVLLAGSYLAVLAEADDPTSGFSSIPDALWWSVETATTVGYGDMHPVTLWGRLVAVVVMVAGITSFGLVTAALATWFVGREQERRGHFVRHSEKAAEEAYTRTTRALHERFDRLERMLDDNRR
Method: Phage display test solutions were prepared according to routine phage display protocols ([62]). Phosphorylated and annealed oligonucleotides encoding the peptide construct were ligated into linearized pAS62 phagemid vector (https://patents.google.com/patent/WO2022144560A1/en) at a vector/insert ratio of 1:3. The final phagemid construct harbored a signal sequence followed by the peptide of interest, a linker sequence ([…]), and the C-terminal part of the P3 coat protein (amino acids: 216-424 of NP_510891.1). Chemically competent XL1-Blue E. coli cells (2022249, Agilent) were transformed with the ligation product and then streaked onto ampicillin (100 μg/ml) containing LB/Amp plates and incubated for 16 h at 37 °C. A few clones were sequenced, and a single colony with confirmed target sequence was inoculated into 3 ml 2 YT medium supplemented with 100 μg/ml ampicillin and incubated at 37 °C until the culture reached midlog phase. The culture was infected with M13KO7 helper phage (N0315S, New England Biolabs) (phage/cell ratio 10:1) and was incubated for 30 min at 37 °C. The 3 ml culture was transferred into 200 ml 2YT medium, supplemented with 100 μg/ml ampicillin and 25 μg/ml kanamycin, and incubated overnight at 37 °C. The overnight cell culture (200 ml) was pelleted by centrifugation at 8000g for 10 min in 400 ml centrifuge tubes at 4 °C. […] The particle concentrations of phage solutions were determined using a NanoDrop One C (Thermo Fisher Scientific) spectrophotometer. The phage particle concentration was assessed according to the formula: (A268–A320) × 5 × 10^12 particles/ml ([62]). […]
Phage stock solutions were diluted to working concentration with phage resuspension buffer supplemented with 2 mM DDM. […] Following blocking, the wells were washed 4× with washing buffer (300 μl TBS-Tween, 0.1% v/v) using a Wellwash Versa microplate washer (Thermo Fisher Scientific); then 50 μl phage solution (in TBS-BSA-Tween, 0.1% v/v, 2 mM DDM) at determined phage concentration was added to the wells and incubated for 1 h at room temperature on a horizontal shaker. […]

[3] = test system: human Kv1.3; conditions: cited from earlier work; for IC50: human Kv1.3 channel blocking, patch-clamp, read-out: IC50, Kv1.x blocking (Kv1.3)
Text: Table 1 Summary of chimeric protein-binding prediction studies in the light of IC50 values | column: Kv1.x blocking / IC50 (nM) || Peptide toxins of venomous animal origin as lead molecules for optimization may offer an advantage over small molecules in terms of potentially greater affinity and specificity. These miniproteins are usually up to 50 amino acids in length and can adopt distinct conformation with secondary structural elements stabilized by several disulfide bonds ([9], [10], [11]). Due to their considerable surface area, miniproteins can form stable complexes with target proteins through extensive interaction surfaces ([12], [13]). The miniprotein Kv1.3 blocker drug candidate, Dalazatide—a synthetic derivative ... || Our initial investigation focused on assessing the relative binding affinities of various channel-blocking toxins to the T-only version of the KcsA-Kv1.3 chimera. Subsequently, we evaluated whether these affinities aligned with the toxins' blocking efficacy on native human Kv1.3 channels, as determined by patch-clamp assay.

[4] = test system: Kv1.2; conditions: cited from earlier work
Text: (§1) Peptide toxins of venomous animal origin as lead molecules for optimization may offer an advantage over small molecules in terms of potentially greater affinity and specificity. These miniproteins are usually up to 50 amino acids in length and can adopt distinct conformation with secondary structural elements stabilized by several disulfide bonds ([9], [10], [11]). Due to their considerable surface area, miniproteins can form stable complexes with target proteins through extensive interaction surfaces ([12], [13]). The miniprotein Kv1.3 blocker drug candidate, Dalazatide—a synthetic derivative ...

[5] = test system: KCa3.1; conditions: cited from earlier work
Text: as §1

[6] = test system: mouse Kv1.1; conditions: cited from earlier work
Text: as §1

CC[C@H](C)[C@H](NC(=O)[C@H](CCC(=O)O)NC(=O)[C@@H](NC(=O)CN)C(C)C)C(=O)N[C@@H](CC(N)=O)C(=O)N[C@H](C(=O)N[C@@H](CCCCN)C(=O)N[C@H]1CSSC[C@@H]2NC(=O)[C@H](CCCCN)NC(=O)CNC(=O)[C@H](Cc3ccccc3)NC(=O)[C@H](CCCNC(=N)N)NC(=O)[C@H](CCSC)NC(=O)CNC(=O)[C@H](C)NC(=O)[C@H](CC(=O)O)NC(=O)[C@H](CCCCN)NC(=O)[C@@H]3CSSC[C@@H](C(=O)N[C@H](C(=O)N4CCC[C@H]4C(=O)N[C@@H](CCCCN)C(=O)O)[C@@H](C)O)NC(=O)[C@H](Cc4c[nH]cn4)NC(=O)[C@H](CSSC[C@H](NC(=O)[C@H](CCC(N)=O)NC(=O)[C@@H]4CCCN4C(=O)[C@H](CO)NC(=O)CNC(=O)[C@H](CO)NC1=O)C(=O)N[C@@H](CC(C)C)C(=O)N[C@@H](CCCCN)C(=O)N1CCC[C@H]1C(=O)N3)NC(=O)[C@H](CCCCN)NC(=O)[C@H](CCCNC(=N)N)NC(=O)[C@H](CC(N)=O)NC(=O)[C@H](CCSC)NC2=O)C(C)C [KTX1, Kaliotoxin-1]
IC50 [1]: 1.1 to 41 nM
rank order of phage binding to KcsA-Kv1.3 T+F [2]: Vm24 > HgTx1 > KTX1
IC50 [3]: 0.65 nM

CC[C@H](C)[C@@H]1NC(=O)[C@@H]2CSSC[C@H](NC(=O)[C@H](CO)NC(=O)[C@@H](N)C(C)C)C(=O)N[C@@H]([C@@H](C)O)C(=O)NCC(=O)N[C@@H](CO)C(=O)N[C@@H](CCCCN)C(=O)N[C@@H](CC(=O)O)C(=O)N[C@@H](CSSC[C@@H](C(=O)N[C@@H](CCCCN)C(=O)N[C@H]3CSSC[C@@H](C(N)=O)NC(=O)CNC(=O)[C@H](Cc4ccc(O)cc4)NC3=O)NC(=O)[C@H](CO)NC(=O)[C@H](CCCCN)NC(=O)[C@H](CC(N)=O)NC1=O)C(=O)N[C@@H](Cc1ccc(O)cc1)C(=O)N[C@@H](C)C(=O)N1CCC[C@H]1C(=O)N[C@H]1CSSC[C@H](NC(=O)CNC(=O)[C@H]([C@@H](C)O)NC(=O)[C@H](CCC(N)=O)NC(=O)[C@H](CCCCN)NC(=O)[C@H](CCCNC(=N)N)NC1=O)C(=O)N1CCC[C@H]1C(=O)N[C@@H](CC(N)=O)C(=O)N[C@@H](C)C(=O)N[C@@H](CCCCN)C(=O)N2 [MTX, Maurotoxin] (HELM PEPTIDE1{V.S.C.T.G.S.K.D.C.Y.A.P.C.R.K.Q.T.G.C.P.N.A.K.C.I.N.K.S.C.K.C.Y.G.C.[am]}$PEPTIDE1,PEPTIDE1,3:R3-24:R3|PEPTIDE1,PEPTIDE1,9:R3-29:R3|PEPTIDE1,PEPTIDE1,13:R3-19:R3|PEPTIDE1,PEPTIDE1,31:R3-34:R3$$$V2.0; N-terminus and C-terminus assumed)
IC50 [1]: > 100 nM

CC[C@H](C)[C@@H]1NC(=O)CNC(=O)[C@H](Cc2ccccc2)NC(=O)[C@H](CCC(N)=O)NC(=O)[C@H](C)NC(=O)[C@H](CCCCN)NC(=O)[C@@H]2CSSC[C@@H](C(=O)N[C@@H](Cc3ccc(O)cc3)C(=O)N3CCC[C@H]3C(=O)N[C@@H](Cc3c[nH]cn3)C(=O)O)NC(=O)[C@H](CCCCN)NC(=O)[C@@H]3CSSC[C@H](NC(=O)[C@H](CCC(N)=O)NC(=O)[C@H](CCCCN)NC(=O)[C@@H]4CCCN4C(=O)[C@H](CO)NC(=O)[C@H]([C@@H](C)O)NC(=O)[C@@H](NC(=O)[C@H](CCCCN)NC(=O)[C@@H](NC(=O)[C@H](CC(=O)O)NC(=O)[C@@H](NC(=O)[C@@H](NC(=O)[C@@H](N)[C@@H](C)O)C(C)C)[C@@H](C)CC)C(C)C)CSSC[C@H](NC(=O)[C@H](CCCCN)NC(=O)[C@H](C)NC(=O)CNC(=O)[C@H](C)NC(=O)[C@H](CCCNC(=N)N)NC1=O)C(=O)N[C@@H](CCSC)C(=O)N[C@@H](CC(N)=O)C(=O)NCC(=O)N[C@@H](CCCCN)C(=O)N3)C(=O)N[C@@H](CC(C)C)C(=O)N1CCC[C@H]1C(=O)N1CCC[C@H]1C(=O)N2 [HgTx1, Hongotoxin-1] (HELM PEPTIDE1{T.V.I.D.V.K.C.T.S.P.K.Q.C.L.P.P.C.K.A.Q.F.G.I.R.A.G.A.K.C.M.N.G.K.C.K.C.Y.P.H}$PEPTIDE1,PEPTIDE1,7:R3-29:R3|PEPTIDE1,PEPTIDE1,13:R3-34:R3|PEPTIDE1,PEPTIDE1,17:R3-36:R3$$$V2.0; N-terminus and C-terminus assumed)
inhibition of Kv1.1, in words [1]: equivalent high potency
rank order of phage binding to KcsA-Kv1.3 T+F [2]: Vm24 > HgTx1 > KTX1
inhibition of Kv1.3, in words [3]: equivalent high potency
IC50 [3]: 0.086 nM

CC[C@H](C)[C@H](NC(=O)[C@H](C)NC(=O)[C@H](C)NC(=O)[C@H](C)N)C(=O)N[C@@H](CO)C(=O)N[C@H]1CSSC[C@@H]2NC(=O)[C@H](CCCCN)NC(=O)CNC(=O)[C@H](CC(N)=O)NC(=O)[C@H](CCCCN)NC(=O)[C@@H]3CSSC[C@@H](C(N)=O)NC(=O)[C@H](Cc4ccc(O)cc4)NC(=O)[C@H](Cc4ccc(O)cc4)NC(=O)[C@@H]4CSSC[C@H](NC(=O)[C@H](CCCCN)NC(=O)[C@@H]5CCCN5C(=O)[C@@H]5CCCN5C(=O)[C@H](CSSC[C@H](NC(=O)[C@H](CCCCN)NC(=O)[C@H](CCCNC(=N)N)NC(=O)[C@H](CC(N)=O)NC(=O)[C@H](CCSC)NC2=O)C(=O)N[C@@H](CCCCN)C(=O)N4)NC(=O)[C@H](CCC(=O)O)NC(=O)[C@@H]2CCCN2C(=O)[C@H](CO)NC(=O)CNC(=O)[C@H](C(C)C)NC1=O)C(=O)N[C@@H](CCCNC(=N)N)C(=O)N[C@@H](C)C(=O)N[C@@H](CCC(N)=O)C(=O)NCC(=O)N3 [Vm24, Vm24 toxin]
selectivity for Kv1.3 over Kv1.2 [4]: limited selectivity
selectivity for Kv1.3 over KCa3.1 [5]: limited selectivity
selectivity for Kv1.3 over mouse Kv1.1 [6]: limited selectivity
rank order of phage binding to KcsA-Kv1.3 T+F [2]: Vm24 > HgTx1 > KTX1
IC50 [3]: 0.003 nM
